Assay results as given in paper PMC7144022, “Quinolinecarboxamides Inhibit the Replication of the Bovine Viral Diarrhea Virus by Targeting a Hot Spot for the Inhibition of Pestivirus Replication in the RNA-Dependent RNA Polymerase” (Molecules, 2020).

What was measured:
MDBK cells = experiment: Cytotoxicity assay, proliferation of exponentially growing MDBK cells (MTS/PMS); format: cell-based, bovine; conditions: 5 days
Description: (§1) Assays were carried out, as described previously.

BVDV NADL virus = experiment: CPE-based antiviral assay, BVDV NADL in MDBK cells (MTS/PMS); conditions: for S.I.: selectivity index, CC50 vs EC50; for EC50: Bovine viral diarrhea virus isolates and strains, MDBK, 72 h
[1] = target: T1, BVDV (NADL) RNA-dependent RNA polymerase (RdRp) (Bovine viral diarrhea virus, UniProt P19711); conditions: reference compounds; cited from earlier work
T1 construct: BVDV (NADL) RNA-dependent RNA polymerase (RdRp) was expressed and purified; made in house

[2] = target: T1, BVDV (NADL) RNA-dependent RNA polymerase (RdRp); experiment: RNA-dependent RNA polymerase assay, poly(C) template; format: biochemical; conditions: purified RdRp, read-out: 50% inhibitory concentration for the BVDV polymerase activity
Description: BVDV (NADL) RNA-dependent RNA polymerase (RdRp) was expressed and purified, as described before. […] In brief, the purified BVDV polymerase (100 nM) was mixed with 100 µM GTP (containing 8.3 µM of [^3H]GTP, Perkin Elmer) and increasing concentration of the inhibitor (0.2 µM, 0.7 µM, 2 µM, 6 µM, 19 µM, 56 µM, 165 µM or 500 µM) in 50 mM Hepes pH 8.0, 10 mM KCl, 10 mM DTT, 1 mM MgCl2, 2mM MnCl2, and 0.5% igepal (Sigma). The enzyme mix and inhibitors were pre-incubated, in order to favor enzyme-inhibitor interactions before RNA binding. Reactions were started by the addition of 100 nM of poly(C) (about 500 nt in size) template. Reactions were incubated at 30 °C and stopped by addition of 50 mM EDTA. Samples were transferred onto DE-81 filters, washed with 0.3 M ammonium formate solution, and dried. Radioactivity bound to the filter was determined by liquid scintillation counting.

[3] = Cytotoxicity assay, proliferation of exponentially growing MDBK cells (MTS/PMS); format: cell-based, bovine; conditions: bovine
Description: as §1

[4] = sheet CSFCII#, potency relative to TO502-2403 (EC50 0.2 µM)
[5] = sheet CSFCI#, potency relative to TO505-6180 (EC50 0.07 µM)

T1 sequence (P19711 3270-3988): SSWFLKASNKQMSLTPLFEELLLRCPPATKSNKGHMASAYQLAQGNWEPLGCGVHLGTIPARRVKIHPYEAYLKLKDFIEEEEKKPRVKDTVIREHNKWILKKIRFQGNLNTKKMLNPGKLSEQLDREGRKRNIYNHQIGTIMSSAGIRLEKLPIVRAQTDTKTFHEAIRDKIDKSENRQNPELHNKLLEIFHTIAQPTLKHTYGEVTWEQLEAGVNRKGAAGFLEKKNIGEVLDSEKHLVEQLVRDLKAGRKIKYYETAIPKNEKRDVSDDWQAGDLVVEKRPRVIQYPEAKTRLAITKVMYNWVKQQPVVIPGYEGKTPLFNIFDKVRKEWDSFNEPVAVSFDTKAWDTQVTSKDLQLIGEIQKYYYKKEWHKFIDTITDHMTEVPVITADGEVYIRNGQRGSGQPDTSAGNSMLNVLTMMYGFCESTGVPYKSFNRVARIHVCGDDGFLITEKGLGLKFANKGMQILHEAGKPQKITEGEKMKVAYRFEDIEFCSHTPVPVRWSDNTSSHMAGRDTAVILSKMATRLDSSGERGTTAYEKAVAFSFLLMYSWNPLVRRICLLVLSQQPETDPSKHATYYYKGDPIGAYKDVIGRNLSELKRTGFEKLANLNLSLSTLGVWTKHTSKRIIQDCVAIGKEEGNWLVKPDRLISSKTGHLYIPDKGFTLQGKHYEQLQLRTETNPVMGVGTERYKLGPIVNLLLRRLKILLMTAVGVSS

| Compound | CC50 (MDBK cells) | S.I. (BVDV NADL virus) | fold increase (BVDV NADL virus; [4]) | inhibitory effect on the highly purified BVDV RdRp [1] | IC50 [2] | CC50 at 5 days [3] | EC50 (BVDV NADL virus) | fold increase (BVDV NADL virus; [5]) |
| --- | --- | --- | --- | --- | --- | --- | --- | --- |
| Cc1cc(nn1)NC(=O)c3cc(nc2ccccc23)c4ccccc4 [CSFC-20] | > 100 µM | 1 | 0.002 |  |  |  |  |  |
| CCOC(=O)c1cc2ccn3c(c-2n1)N=C(C)C3 [AG110, ethyl 2-methylimidazo[1,2-a]pyrrolo[2,3-c]pyridin-8-carboxylate] |  |  |  | none of these compounds had any inhibitory effect |  |  |  |  |
| Nc1nc2c(ncn2[C@@H]2O[C@H](COP(=O)(O)OP(=O)(O)OP(=O)(O)O)C[C@H]2O)c(=O)[nH]1 [3′-dGTP, 3′-deoxyguanosine-5’-triphosphate, reference compound] |  |  |  |  | < 1 µM |  |  |  |
| Brc1ccc(Cn2ccc3nc(-c4ccccc4)nc-3c2)cc1 [BPIP, 5-[(4-bromophenyl)methyl]-2-phenyl-5H-imidazo[4,5-c]pyridine] |  |  |  | none of these compounds had any inhibitory effect |  |  |  |  |
| Nc1nc2c(cnn2CCCc2ccc3c(c2)OCO3)c2nc(-c3ccco3)nn12 [LZ37, 7-[3-(1,3-benzodioxol-5-yl)propyl]-2-(2-furyl)-7H-pyrazolo[4,3-e][1,2, 4]triazolo[1,5-c]pyrimidin-5-amine] |  |  |  | none of these compounds had any inhibitory effect |  |  |  |  |
| O=C(Nc1ccn(-c2ccccc2)n1)c1cc(-c2ccco2)nc2ccccc12 [CSFC-44, O=C(Nc1ccn(n1)c2ccccc2)c4cc(nc3ccccc34)c5ccco5] |  | 10 | 0.09 |  |  | 23 µM | 2.3 µM |  |
| Cc1cc(NC(=O)c2cc(-c3ccccc3)nc3ccccc23)no1 [CSFC-40, Cc1cc(no1)NC(=O)c3cc(nc2ccccc23)c4ccccc4] |  | 1 | 0.00213 |  |  | > 100 µM | 94 µM |  |
| Cc1cccc2sc(NC(=O)c3cc(-c4ccco4)nc4ccc(F)cc34)nc12 [CSFC-71, Fc1cc2c(cc1)nc(cc2C(=O)Nc3nc4c(C)cccc4s3)c5ccco5] |  | 1000 | 2.00 |  |  | > 100 µM | 0.1 µM |  |
| O=C(Nc1ccn(-c2ccccc2)n1)c1cc(-c2cccs2)nc2ccccc12 [CSFC-47, O=C(Nc1ccn(n1)c2ccccc2)c4cc(nc3ccccc34)c5cccs5] |  | 59 | 0.12 |  |  | > 100 µM | 1.7 µM |  |
| CS(=O)(=O)c1ccc2nc(NC(=O)c3cc(-c4ccccc4)nc4ccccc34)sc2c1 [CSFC-56, CS(=O)(=O)c1ccc2nc(sc2c1)NC(=O)c4cc(nc3ccccc34)c5ccccc5] |  | 1 | 0.002 |  |  | > 100 µM | 100 µM |  |
| Cc1cccc2sc(NC(=O)c3cc(-c4cccn4C)nc4ccccc34)nc12 [CSFC-88, Cn1cccc1c3nc2ccccc2c(c3)C(=O)Nc4nc5c(C)cccc5s4] |  | 500 | 1.00 |  |  | > 100 µM | 0.2 µM |  |
| COc1cccc(NC(=O)c2cc(-c3ccccc3)nc3ccccc23)c1 [CSFC-138, COc1cccc(c1)NC(=O)c1cc(nc2ccccc12)c1ccccc1] |  | 1 |  |  |  | > 100 µM | > 100 µM | 0.0007 |
| Cc1ccc2nc(NC(=O)c3ccnc4ccccc34)sc2c1 [CSFC-17, Cc1ccc2nc(sc2c1)NC(=O)c4ccnc3ccccc34] |  | 1 | 0.002 |  |  | > 100 µM | 100 µM |  |
| Cc1cccc2sc(NC(=O)c3cc(-c4ccccc4F)nc4c(F)cccc34)nc12 [CSFC-103, Fc1ccccc1c3nc2c(cccc2F)c(c3)C(=O)Nc4nc5c(C)cccc5s4] |  | 200 | 0.40 |  |  | > 100 µM | 0.5 µM |  |
| COc1cccc2sc(NC(=O)c3cc(-c4ccccc4)nc4ccccc34)nc12 [CSFC-19, COc1cccc2sc(nc12)NC(=O)c1cc(nc2ccccc21)c1ccccc1] |  | 250 |  |  |  | > 100 µM | 0.4 µM | 0.18 |
| Cc1ccc2nc(NC(=O)c3cccnc3)sc2c1 [CSFC-23, Cc1ccc2nc(NC(=O)c3cccnc3)sc2c1] |  | 1 |  |  |  | > 100 µM | > 100 µM | 0.0007 |
| COc1ccc2nc(NC(=O)c3cc(-c4ccccc4)nc4ccccc34)sc2c1 [CSFC-9, COc1ccc2nc(NC(=O)c3cc(nc4ccccc43)c3ccccc3)sc2c1] |  | 333 |  |  |  | > 100 µM | 0.3 µM | 0.23 |

| Compound | CC50 (MDBK cells) | S.I. (BVDV NADL virus) | fold increase (BVDV NADL virus; [4]) | inhibitory effect on the highly purified BVDV RdRp [1] | IC50 [2] | CC50 at 5 days [3] | EC50 (BVDV NADL virus) | fold increase (BVDV NADL virus; [5]) |
| --- | --- | --- | --- | --- | --- | --- | --- | --- |
| O=C(Nc1ccccc1O)c1cc(-c2ccccc2)nc2ccccc12 [CSFC-137, Oc1ccccc1NC(=O)c1cc(nc2ccccc12)c1ccccc1] |  | 1 |  |  |  | > 100 µM | > 100 µM | 0.0007 |
| Cc1ccc2nc(NC(=O)c3ncc[nH]3)sc2c1 [CSFC-30, Cc1ccc2nc(NC(=O)c3ncc[NH]3)sc2c1] |  | 1 |  |  |  | > 100 µM | > 100 µM | 0.0007 |
| O=C(Nc1ccncc1)c1cc(-c2ccccc2)nc2ccccc12 [CSFC-8, O=C(Nc1ccncc1)c1cc(nc2ccccc21)c1ccccc1] |  | 1 |  |  |  | > 100 µM | > 100 µM | 0.0007 |
| O=C(Nc1ccn(-c2ccccc2)n1)c1cc(-c2cc3ccccc3o2)nc2ccccc12 [CSFC-92, O=C(Nc1ccn(n1)c2ccccc2)c3cc(nc4ccccc34)c5cc6ccccc6o5] |  | 333 | 0.67 |  |  | > 100 µM | 0.3 µM |  |
| COc1ccc2nc(NC(=O)c3cc(-c4ccco4)nc4ccc(F)cc34)sc2c1 [CSFC-63, Fc1cc2c(cc1)nc(cc2C(=O)Nc3nc4ccc(cc4s3)OC)c5ccco5] |  | 5 | 0.0106 |  |  | > 100 µM | 18.8 µM |  |
| O=C(Nc1nc2cc(F)ccc2s1)c1cc(-c2ccco2)nc2ccccc12 [CSFC-54, Fc1cc2nc(sc2cc1)NC(=O)c4cc(nc3ccccc34)c5ccco5] |  | 1 | 0.002 |  |  | > 100 µM | 100 µM |  |
| O=C(Nc1ccn(-c2ccccc2)n1)c1cc(-c2ccncc2)nc2ccccc12 [CSFC-121, O=C(Nc1ccn(n1)c1ccccc1)c1cc(nc2ccccc21)c1ccncc1] |  | 1 | 0.002 |  |  | > 100 µM | 100 µM |  |
| O=C(Nc1ccccc1)c1cc(-c2ccccc2)nc2ccccc12 [CSFC-134, O=C(Nc1ccccc1)c1cc(nc2ccccc12)c1ccccc1] |  | 1 |  |  |  | > 100 µM | > 100 µM | 0.0007 |
| Cc1cccc2sc(NC(=O)c3cc(-c4ccsc4)nc4ccccc34)nc12 [CSFC-78, Cc1cccc2sc(nc12)NC(=O)c4cc(nc3ccccc34)c5ccsc5] |  | 1000 | 2.00 |  |  | > 100 µM | 0.1 µM |  |
| Cc1cccc2sc(NC(=O)c3cc(-c4cccs4)nc4ccccc34)nc12 [CSFC-46, Cc1cccc2sc(nc12)NC(=O)c4cc(nc3ccccc34)c5cccs5] |  | 500 | 1.00 |  |  | > 100 µM | 0.2 µM |  |
| Cc1ccc(-c2cc(C(=O)Nc3ccn(-c4ccccc4)n3)c3ccccc3n2)cc1 [CSFC-112, Cc1ccc(cc1)c3nc2ccccc2c(c3)C(=O)Nc4ccn(n4)c5ccccc5] |  | 1000 | 2.00 |  |  | > 100 µM | 0.1 µM |  |
| Cc1ccccc1-n1ccc(NC(=O)c2cc(-c3ccccc3)nc3ccccc23)n1 [CSFC-142, Cc1ccccc1n2ccc(n2)NC(=O)c4cc(nc3ccccc34)c5ccccc5] |  | 10 | 0.09 |  |  | 23 µM | 2.3 µM |  |
| Cc1cccc2sc(NC(=O)c3cc(-c4ccco4)nc4ccc(CO)cc34)nc12 [CSFC-74, OCc1cc2c(cc1)nc(cc2C(=O)Nc1nc2c(C)cccc2s1)c1ccco1] |  | 1 | 0.002 |  |  | > 100 µM | 100 µM |  |
| Cc1cccc2sc(NC(=O)c3cc(-c4cc(Cl)sc4Cl)nc4ccccc34)nc12 [CSFC-85, Clc1cc(c(Cl)s1)c3nc2ccccc2c(c3)C(=O)Nc4nc5c(C)cccc5s4] |  | 333 | 0.67 |  |  | > 100 µM | 0.3 µM |  |
| Cc1cccc2sc(NC(=O)c3cc(-c4cccs4)nc4c(Cl)cccc34)nc12 [CSFC-98, Clc5cccc1c5nc(cc1C(=O)Nc2nc3c(C)cccc3s2)c4cccs4] |  | 500 | 1.00 |  |  | > 100 µM | 0.2 µM |  |
| COc1ccc(-c2cc(C(=O)Nc3nc4c(C)cccc4s3)c3ccccc3n2)cc1F [CSFC-119, COc1ccc(cc1F)c3nc2ccccc2c(c3)C(=O)Nc4nc5c(C)cccc5s4] |  | 40 | 0.08 |  |  | > 100 µM | 2.5 µM |  |
